Data: publication PMC6001782 (Chemistry (Weinheim an Der Bergstrasse, Germany), 2018)

Target: T1, BtGH99 (Bacteroides thetaiotaomicron, UniProt Q8A109)
T1 sequence (Q8A109 18-382): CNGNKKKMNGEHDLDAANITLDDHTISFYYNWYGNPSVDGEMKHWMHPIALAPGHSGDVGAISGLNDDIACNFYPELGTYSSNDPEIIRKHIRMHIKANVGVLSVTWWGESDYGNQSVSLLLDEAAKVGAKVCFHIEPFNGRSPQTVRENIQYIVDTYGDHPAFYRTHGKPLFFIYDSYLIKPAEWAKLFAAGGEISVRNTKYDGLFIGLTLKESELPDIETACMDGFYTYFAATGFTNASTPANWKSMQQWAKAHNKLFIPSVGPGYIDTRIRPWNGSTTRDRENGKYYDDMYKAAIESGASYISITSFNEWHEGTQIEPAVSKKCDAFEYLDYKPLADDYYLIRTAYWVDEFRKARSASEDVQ
Test: isothermal titration calorimetry
Type: binding

N[C@@H]1CN[C@H](CO)[C@@H](O)[C@@H]1O[C@H]1O[C@H](CO)[C@@H](O)[C@H](O)[C@@H]1O [compound 1, α‐D‐Mannopyranosyl‐(1→3)‐2‐amino‐1,2,5‐trideoxy‐1,5‐imino‐D‐mannitol]
Kd: 97.7 ± 4.9 µM
